Test results: patent publication US20030186950A1, “Use of n-heterocyclic substituted salicylates for inhibition of cellular uptake of cystine” (priority 2000, published 2003)
“Also recorded” adds a separate entry of the source.

Experiments:
[1] = as reported in the literature for patients/controls undergoing treatment; cited from earlier work
[2] = tested on: Nb2-SFJCD1 rat lymphoma cells; assay: Culture growth inhibition assay in Nb2-SFJCD1 lymphoma cultures; type: cell-based; conditions: for IC50: 45 h, Fischer's medium with 10.0% horse gelding serum, read-out: IC50 (mM) Average ± S.D., growth inhibition; for Growth-inhibitory activity: 0.1-0.3 mM (FIG. 2)
Procedure: (§1) Nb2 lymphoma is of a pre-T cell origin. The parental line (Nb2 U17) is non-metastatic as subcutaneous implants whereas subline Nb2-SFJCD1 is highly metastatic. Nb2-SFJCD1 cultures (doubling time=12-13 hr) were maintained in Fischer's medium (Sigma-Aldrich), supplemented with 10.0% horse gelding serum (lactogen-deficient; one batch, ICN Biomedicals, Inc., Auroro, Ohio), penicillin (50 U/ml) and streptomycin (50 μg/ml). In this medium the cells grow as clumps which can be readily dispersed. Nb2 lymphoma cell lines are used by a number of laboratories; the Nb2-11 subline, is available from the European Collection of Animal Cell Cultures (ECACC) in Salisbury, U.K. The Nb2-U17 and Nb2-SJFCD1 cell lines are available from Dr. Peter W. Gout, B.C. Cancer Research Centre, Vancouver, B.C., Canada.
Nb2-SFJCD1 cells from log phase cultures were centrifuged (3.5 min at 350×g) and gently resuspended in fresh Fisher's medium containing 10% horse gelding serum. Aliquots (1.80 ml) were distributed in 12-well tissue culture plates (Linbro, Flow Laboratories, Mississauga, ON, Canada) and preincubated for 3-5 hours at 37° C. in a water-saturated 5% CO2/air atmosphere. Solutions of the drugs (200 μl portions) were then added to the cultures for a 45 hour incubation (Cin=1.0×10^5 cells/ml). Cell populations were determined using an electronic counter (Coulter Electronics, Hialeah, Fla.).

[3] = tested on: MCF-7 human breast carcinoma cell line; assay: Cell proliferation of MCF-7 breast carcinoma cells; type: cell-based
Text: (§2) The effect of sulfasalazine on cell proliferation was subsequently assessed.

Nb2-U17 tumor transplant = assay: Tumor growth inhibition in Nb rats with subcutaneous Nb2-U17 lymphoma transplants; type: in vivo, rat; conditions: b.i.d.; for Average tumor size after 7 days: controls 12.6 gr
Procedure: A colony of Nb rats is maintained in the British Columbia Cancer Research Centre Vancouver, B.C., Canada. Approximately equal portions of minced Nb2-U17 tumor tissue, developed subcutaneously in a rat following injection of cultured Nb2-U17 cells, were injected by trocar subcutaneously in the nape of the neck of groups of male Nb rats (one injection per rat), that had been lightly anesthetized with isoflurane (Abbott Laboratories Ltd., Montreal, Canada). […] 2% CMC or saline were used for controls. Drug preparation and administration were carried out under subdued light conditions. Food and water were provided ad libitum. Tumor size, body weight and general health of the rats were monitored twice a day. Tumor size was measured using calipers and expressed in grams using the formula: π/6×length×width×height in cm. […] On necropsy the animals were examined for evidence of metastatic spread with particular attention to tissues such as kidneys, liver and spleen, the target tissues of metastatic Nb2 lymphoma cells. Tissue sections were taken for histologic analysis. Non-tumor-bearing animals were used to establish maximally tolerated dosages.
Groups of male rats (350-400 gr) were used, each carrying a single, well-developed, rapidly growing, non-metastatic, subcutaneous Nb2-U17 tumor transplant in the nape of the neck. Non-metastatic Nb2-U17 tumors were employed to avoid dissemination of cells from the tumor which would interfere with measurements of drug-induced changes in tumor mass. […] The animals were treated for a 7-day period, with drug administration taking place at approximately 12 hour intervals in an attempt to maintain elevated levels of the drug in the circulation.

[4] = tested on: MDA-MB-231 human breast carcinoma cell line; assay: Cell proliferation of MDA-MB-231 breast carcinoma cells; type: cell-based; conditions: 2-ME 60 μM
Text: as §2

[5] = rat, in vivo, ip
Text: 2% CMC or saline were used for controls. […] Food and water were provided ad libitum. […] Tissue sections were taken for histologic analysis.
Reduced tumor growth in the animals was therefore not the result of drug-induced dissemination of tumor cells from the transplant site, but reflected genuine, tumor growth inhibition. […] During therapy the animals remained active and their eyes stayed bright; there was no evidence of diarrhea, or changes in the appearance of their fur.

[6] = tested on: DoHH2 cells (human B-cell non-Hodgkin's lymphoma); assay: Culture growth inhibition assay in DoHH2 cultures; type: cell-based; conditions: for Growth-inhibitory activity: medium with 5% FBS + 5% horse serum (FIG. 4)
Procedure: as §1, with “Canada. DoHH2 cell suspension cultures (doubling time ca. 20 hours) were maintained in RPMI-1640 medium (Stem Cell Technology, Vancouver, B.C., Canada) containig fetal bovine serum (5%), horse serum (5%) and antibiotics.” for “Canada.”
Assays using DoHH2 cells were similarly performed, using their maintenance medium; Cin=ca. 1.5×10^5 cells/ml (see: Kluin-Nelemans, H. C. et al. (1991) Leukemia 5:221.)

In the case of `CC(=O)Oc1ccccc1C(=O)O` [Acetylsalicylic acid], the “Therapeutic drug levels in plasma” value [1] is given as 1 to 3 mM, the inhibition at 3000 µM ([2]; Rattus norvegicus, 3 mM (FIG. 1), read-out: Inhibition of culture growth at therapeutic concentration) is given as ~50% and the IC50 ([2]; Rattus norvegicus) is given as 3.09 ± 0.28 mM.

With `N[C@@H](CCC(=O)O)C(=O)[O-].[Na+]` [Monosodium glutamate] the Inhibition of proliferation ([3]; 10 mM) was “inhibited proliferation in MCF-7 cells to an extent similar to that observed for sulfasalazine” and the “Effect of 2-ME addition on inhibition of proliferation” value ([3]; 10 mM, 2-ME added) was “completely negated this effect”.

In the case of `O=C([O-])c1ccccc1O.[Na+]` [Salicylate, sodium, sodium salicylate], the “Inhibition of tumor growth” value (Nb2-U17 tumor transplant; i.p. 150 mg/kg body wt, 7 days, 150 mg/kg) is reported as “did not inhibit tumor growth; also recorded: had no effect”.

For `Nc1ccc(O)c(C(=O)O)c1` [5-aminosalicylic acid], the Growth-inhibitory activity ([2]; listed as 5-ASA) was “devoid of growth-inhibitory activity”.

For `COc1ccc2c(c1)c(CC(=O)O)c(C)n2C(=O)c1ccc(Cl)cc1` [Indomethacin], the “Therapeutic drug levels in plasma” value [1] is given as 0.005 to 0.02 mM, the inhibition at 20 µM ([2]; Rattus norvegicus, 0.02 mM (FIG. 1), read-out: Inhibition of culture growth at therapeutic concentration) is given as 5 to 10% and the IC50 ([2]; Rattus norvegicus) is given as 0.15 ± 0.01 mM.

With `O=C(O)c1cc(/N=N/c2ccc(S(=O)(=O)Nc3ccccn3)cc2)ccc1O` [Sulfasalazine] the “Antagonism of inhibitory action by 2-ME” value [4] was “completely antagonized”, the IC50 ([3]; Homo sapiens, MCF7, MCF-7, read-out: IC50, growth inhibition) was 500 ± 100 µM and the “Effect on culture growth” value ([2]; 0.15 mM, 45 hour experiment) was “only partially arrested growth”. For the same compound, the Cell lysis ([2]; 0.2 mM, period 24-45 hours) was “induced severe cell lysis”, the Growth-inhibitory activity [2] was “highly potent” and the “Change of growth-inhibitory effect by elevated cystine” value ([2]; cystine at ca. 3-fold elevated levels (FIG. 5)) was “substantially reduced”. For the same compound, the Maximally tolerated dose ([5]; Nb, 7 days) was 250 mg/kg body wt, b.i.d, the Side effects [5] was “no major side effects” and the Cell lysis ([6]; 1.5% FBS, 0.05 mM, at hr 45 (FIG. 4)) was “extensive cell lysis”. For the same compound, the Growth-inhibitory activity [6] was “sensitivity to the drug which was similar to that of rat Nb2 lymphoma cells”, the Growth-inhibitory activity ([6]; listed as sulfasalazine) was “markedly inhibited the growth” and the “Average tumor size after 7 days” value (Nb2-U17 tumor transplant; i.p. 200 mg/kg body wt, start 0.93 gr) was 3.43 gr. For the same compound, the “Average tumor size after 7 days” value (Nb2-U17 tumor transplant; i.p. 250 mg/kg body wt, start 0.60 gr) was 2.65 gr, the “Tumor growth suppression in three of the 13 cases” value (Nb2-U17 tumor transplant; i.p. 200 or 250 mg/kg body wt, 7 days) was 90-100% and the Lymphoma growth-inhibitory effect (Nb2-U17 tumor transplant; oral 500 mg/kg body wt, 7 days) was “only minor lymphoma growth-inhibitory effect”.

In the case of `Nc1ccc(S(=O)(=O)Nc2ccccn2)cc1` [sulfapyridine], the Growth-inhibitory activity [2] is reported as “devoid of growth-inhibitory activity”.
